Key:
ALK6/BMPR1B = biological target: T1, ALK6/BMPR1B (Homo sapiens, UniProt O00238); test: 375-member kinase panel; assay type: biochemical; settings: Run 1, Run 2; for % enzyme activity: 1 μM; for remaining activity at 1 µM: read-out: % enzyme activity, 1 μM
T1 construct: purchased Reaction Biology Corporation

Aurora A = biological target: T2, Aurora A (Homo sapiens, UniProt O14965); settings: 1 μM; Run 1, Run 2
T2 sequence (O14965 1-403): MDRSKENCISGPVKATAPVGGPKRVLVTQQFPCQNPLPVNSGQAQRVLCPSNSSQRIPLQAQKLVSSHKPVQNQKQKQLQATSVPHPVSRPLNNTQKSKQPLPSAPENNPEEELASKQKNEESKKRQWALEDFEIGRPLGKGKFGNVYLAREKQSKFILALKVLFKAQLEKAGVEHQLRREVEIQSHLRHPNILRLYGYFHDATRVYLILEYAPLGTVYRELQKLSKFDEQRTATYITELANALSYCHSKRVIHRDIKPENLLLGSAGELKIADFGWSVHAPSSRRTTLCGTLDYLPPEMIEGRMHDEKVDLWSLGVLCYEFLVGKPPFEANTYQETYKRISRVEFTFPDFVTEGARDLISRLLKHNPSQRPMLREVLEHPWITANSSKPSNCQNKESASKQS

CK1a1 = CK1a1 (Homo sapiens, UniProt P48729); settings: 1 μM; Run 1, Run 2
Chain of CK1a1 (P48729 whole entry): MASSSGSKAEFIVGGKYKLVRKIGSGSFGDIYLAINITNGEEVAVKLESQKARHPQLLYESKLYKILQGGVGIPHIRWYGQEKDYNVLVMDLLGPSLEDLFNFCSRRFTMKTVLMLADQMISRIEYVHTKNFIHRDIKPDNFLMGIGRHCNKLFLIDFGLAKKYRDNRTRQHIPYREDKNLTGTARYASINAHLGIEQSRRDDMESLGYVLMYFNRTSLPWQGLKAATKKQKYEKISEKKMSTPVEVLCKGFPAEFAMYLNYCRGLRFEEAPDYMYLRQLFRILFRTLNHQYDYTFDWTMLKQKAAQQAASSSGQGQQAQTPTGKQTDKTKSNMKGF

CK1g2 = CK1g2 (Homo sapiens, UniProt P78368); settings: 1 μM; Run 1, Run 2
Chain of CK1g2 (P78368 whole entry): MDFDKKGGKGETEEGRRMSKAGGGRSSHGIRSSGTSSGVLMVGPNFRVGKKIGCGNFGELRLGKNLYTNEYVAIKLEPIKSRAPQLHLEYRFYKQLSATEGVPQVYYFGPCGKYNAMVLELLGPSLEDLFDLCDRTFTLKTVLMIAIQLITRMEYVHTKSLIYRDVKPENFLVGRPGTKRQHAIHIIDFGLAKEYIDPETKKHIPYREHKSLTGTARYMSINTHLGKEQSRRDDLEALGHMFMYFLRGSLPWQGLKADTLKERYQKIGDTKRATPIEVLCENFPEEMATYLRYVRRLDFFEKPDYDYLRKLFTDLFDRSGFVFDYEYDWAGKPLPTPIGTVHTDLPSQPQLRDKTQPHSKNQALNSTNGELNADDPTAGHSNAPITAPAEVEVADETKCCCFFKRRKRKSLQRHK

IKKe/IKBKE = biological target: T3, IKKe/IKBKE (Homo sapiens, UniProt Q14164); settings: 1 μM; Run 1, Run 2
T3 sequence (Q14164 1-716): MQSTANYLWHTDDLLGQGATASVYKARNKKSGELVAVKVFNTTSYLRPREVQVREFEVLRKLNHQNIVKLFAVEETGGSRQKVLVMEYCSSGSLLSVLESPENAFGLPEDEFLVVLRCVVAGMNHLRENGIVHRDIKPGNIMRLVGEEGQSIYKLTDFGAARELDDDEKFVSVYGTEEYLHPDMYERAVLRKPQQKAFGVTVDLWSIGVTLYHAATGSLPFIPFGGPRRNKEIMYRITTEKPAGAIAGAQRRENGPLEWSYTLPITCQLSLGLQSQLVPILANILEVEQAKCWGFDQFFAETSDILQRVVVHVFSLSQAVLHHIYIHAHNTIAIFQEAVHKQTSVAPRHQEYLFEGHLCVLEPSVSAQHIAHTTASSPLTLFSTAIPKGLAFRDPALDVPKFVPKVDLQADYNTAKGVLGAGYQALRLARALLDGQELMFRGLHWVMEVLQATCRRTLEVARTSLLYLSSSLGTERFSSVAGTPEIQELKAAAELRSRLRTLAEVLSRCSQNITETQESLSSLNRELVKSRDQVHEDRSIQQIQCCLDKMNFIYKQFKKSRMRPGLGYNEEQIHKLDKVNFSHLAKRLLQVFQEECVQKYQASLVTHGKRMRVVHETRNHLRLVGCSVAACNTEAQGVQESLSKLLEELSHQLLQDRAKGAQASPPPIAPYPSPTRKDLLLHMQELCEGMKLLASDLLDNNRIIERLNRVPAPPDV

MSSK1/STK23 = MSSK1/STK23 (Homo sapiens, UniProt Q9UPE1); settings: 1 μM; Run 1, Run 2
VRK2 = VRK2 (Homo sapiens, UniProt Q86Y07); settings: 1 μM; Run 1, Run 2
CDK7/cyclin H = CDK7/cyclin H (Homo sapiens, UniProt P50613); test: biochemical; settings: read-out: % enzyme activity, 1 μM; Run 1, Run 2
Chain of CDK7/cyclin H (P50613 whole entry): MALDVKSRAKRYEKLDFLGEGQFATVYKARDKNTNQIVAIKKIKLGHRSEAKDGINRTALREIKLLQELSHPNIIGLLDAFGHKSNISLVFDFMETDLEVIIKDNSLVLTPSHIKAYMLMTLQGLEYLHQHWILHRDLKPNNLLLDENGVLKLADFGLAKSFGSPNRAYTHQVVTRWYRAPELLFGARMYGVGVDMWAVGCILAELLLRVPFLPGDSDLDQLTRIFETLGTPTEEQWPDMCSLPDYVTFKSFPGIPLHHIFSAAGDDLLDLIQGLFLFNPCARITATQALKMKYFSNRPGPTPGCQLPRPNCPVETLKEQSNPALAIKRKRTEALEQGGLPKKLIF
Chain of CDK7/cyclin H (P51946 whole entry partner): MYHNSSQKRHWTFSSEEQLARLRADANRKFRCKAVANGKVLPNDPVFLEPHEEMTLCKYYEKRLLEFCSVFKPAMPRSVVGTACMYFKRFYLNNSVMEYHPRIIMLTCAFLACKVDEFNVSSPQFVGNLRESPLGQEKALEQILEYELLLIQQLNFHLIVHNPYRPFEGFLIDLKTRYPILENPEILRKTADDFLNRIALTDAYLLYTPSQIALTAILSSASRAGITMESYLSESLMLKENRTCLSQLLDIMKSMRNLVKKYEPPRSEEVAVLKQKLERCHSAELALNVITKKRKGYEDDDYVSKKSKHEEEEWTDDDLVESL
Chain of CDK7/cyclin H (P51948 whole entry partner): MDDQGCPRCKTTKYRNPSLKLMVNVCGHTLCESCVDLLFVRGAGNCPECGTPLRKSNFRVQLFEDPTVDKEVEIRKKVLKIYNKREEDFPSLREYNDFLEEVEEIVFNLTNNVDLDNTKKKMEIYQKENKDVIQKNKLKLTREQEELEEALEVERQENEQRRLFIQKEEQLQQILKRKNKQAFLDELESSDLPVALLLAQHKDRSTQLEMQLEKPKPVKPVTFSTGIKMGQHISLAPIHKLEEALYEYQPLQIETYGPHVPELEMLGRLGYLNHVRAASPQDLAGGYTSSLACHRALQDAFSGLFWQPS

CK1d = CK1d (Homo sapiens, UniProt P48730); test: biochemical; settings: read-out: % enzyme activity, 1 μM; Run 1, Run 2
HIPK1 = HIPK1 (Homo sapiens, UniProt Q86Z02); test: biochemical; settings: read-out: % enzyme activity, 1 μM; Run 1, Run 2
HPK1/MAP4K1 = HPK1/MAP4K1 (Homo sapiens, UniProt Q92918); test: biochemical; settings: read-out: % enzyme activity, 1 μM; Run 1, Run 2
IGF1R = IGF1R (Homo sapiens, UniProt P08069); test: biochemical; settings: read-out: % enzyme activity, 1 μM; Run 1, Run 2
Chain of IGF1R (P08069 31-1367): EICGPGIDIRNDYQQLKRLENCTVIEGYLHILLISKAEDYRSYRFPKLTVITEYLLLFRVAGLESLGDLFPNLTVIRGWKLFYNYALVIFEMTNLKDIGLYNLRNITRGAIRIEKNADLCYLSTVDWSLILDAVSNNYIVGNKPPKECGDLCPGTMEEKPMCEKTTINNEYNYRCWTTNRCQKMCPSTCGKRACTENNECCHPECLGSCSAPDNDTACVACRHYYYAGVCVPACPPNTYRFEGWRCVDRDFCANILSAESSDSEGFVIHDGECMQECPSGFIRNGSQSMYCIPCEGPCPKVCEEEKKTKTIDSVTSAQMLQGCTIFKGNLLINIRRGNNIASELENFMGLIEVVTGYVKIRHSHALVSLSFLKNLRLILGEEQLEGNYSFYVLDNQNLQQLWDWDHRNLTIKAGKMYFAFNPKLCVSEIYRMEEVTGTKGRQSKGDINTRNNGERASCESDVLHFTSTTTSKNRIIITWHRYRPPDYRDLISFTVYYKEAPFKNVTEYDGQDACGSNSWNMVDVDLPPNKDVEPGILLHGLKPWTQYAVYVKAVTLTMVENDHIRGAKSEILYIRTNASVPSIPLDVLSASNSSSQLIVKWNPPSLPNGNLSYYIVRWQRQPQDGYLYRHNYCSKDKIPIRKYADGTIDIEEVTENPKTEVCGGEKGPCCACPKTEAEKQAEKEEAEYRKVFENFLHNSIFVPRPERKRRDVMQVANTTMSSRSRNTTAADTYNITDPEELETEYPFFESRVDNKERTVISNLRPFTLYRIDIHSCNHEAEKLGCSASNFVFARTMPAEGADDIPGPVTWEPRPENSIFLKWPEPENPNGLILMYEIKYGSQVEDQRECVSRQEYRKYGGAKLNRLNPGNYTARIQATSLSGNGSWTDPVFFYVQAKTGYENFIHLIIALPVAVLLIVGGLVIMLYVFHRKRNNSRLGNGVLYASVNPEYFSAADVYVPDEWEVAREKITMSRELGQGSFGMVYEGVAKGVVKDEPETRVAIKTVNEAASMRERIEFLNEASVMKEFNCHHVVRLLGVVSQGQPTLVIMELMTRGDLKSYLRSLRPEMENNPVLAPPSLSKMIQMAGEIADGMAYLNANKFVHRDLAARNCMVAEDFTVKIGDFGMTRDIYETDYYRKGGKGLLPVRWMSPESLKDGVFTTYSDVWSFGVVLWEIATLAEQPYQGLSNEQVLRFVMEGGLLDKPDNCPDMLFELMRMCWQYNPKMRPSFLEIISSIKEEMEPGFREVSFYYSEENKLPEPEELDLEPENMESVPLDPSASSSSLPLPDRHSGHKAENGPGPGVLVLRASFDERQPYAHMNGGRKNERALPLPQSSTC

KSR1 = biological target: T4, KSR1 (Homo sapiens, UniProt Q8IVT5); test: biochemical; settings: read-out: % enzyme activity, 1 μM; Run 1, Run 2
T4 sequence (Q8IVT5 1-923): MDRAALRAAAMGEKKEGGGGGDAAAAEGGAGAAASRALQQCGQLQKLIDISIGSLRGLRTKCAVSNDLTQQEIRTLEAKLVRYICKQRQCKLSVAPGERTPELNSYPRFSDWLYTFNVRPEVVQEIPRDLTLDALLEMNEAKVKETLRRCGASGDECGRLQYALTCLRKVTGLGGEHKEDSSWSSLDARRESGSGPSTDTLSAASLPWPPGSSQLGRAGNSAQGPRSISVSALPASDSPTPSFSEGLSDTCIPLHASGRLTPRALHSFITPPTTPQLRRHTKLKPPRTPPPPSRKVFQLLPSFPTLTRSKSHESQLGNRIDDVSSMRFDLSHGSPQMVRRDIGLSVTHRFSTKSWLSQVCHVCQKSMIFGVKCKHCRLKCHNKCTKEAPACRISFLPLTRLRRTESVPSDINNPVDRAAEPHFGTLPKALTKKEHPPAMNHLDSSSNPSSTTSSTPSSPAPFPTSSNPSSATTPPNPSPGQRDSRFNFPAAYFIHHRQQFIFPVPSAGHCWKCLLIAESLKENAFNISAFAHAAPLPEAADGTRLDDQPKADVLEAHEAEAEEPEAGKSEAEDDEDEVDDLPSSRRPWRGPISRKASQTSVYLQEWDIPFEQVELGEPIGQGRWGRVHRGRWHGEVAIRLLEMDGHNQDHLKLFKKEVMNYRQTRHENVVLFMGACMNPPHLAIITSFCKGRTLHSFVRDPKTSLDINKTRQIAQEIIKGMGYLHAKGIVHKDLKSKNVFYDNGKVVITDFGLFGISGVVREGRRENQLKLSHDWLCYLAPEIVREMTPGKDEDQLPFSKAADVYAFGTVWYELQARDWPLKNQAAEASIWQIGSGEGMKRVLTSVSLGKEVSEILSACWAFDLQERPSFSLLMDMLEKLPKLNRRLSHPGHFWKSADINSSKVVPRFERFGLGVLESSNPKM

PKCeta = PKCeta (Homo sapiens, UniProt P24723); test: biochemical; settings: read-out: % enzyme activity, 1 μM; Run 1, Run 2
PKN2/PRK2 = PKN2/PRK2 (Homo sapiens, UniProt Q16513); test: biochemical; settings: read-out: % enzyme activity, 1 μM; Run 1, Run 2
TYK2 = TYK2 (Homo sapiens, UniProt P29597); test: biochemical; settings: read-out: % enzyme activity, 1 μM; Run 1, Run 2
Chain of TYK2 (P29597 whole entry, species assumed): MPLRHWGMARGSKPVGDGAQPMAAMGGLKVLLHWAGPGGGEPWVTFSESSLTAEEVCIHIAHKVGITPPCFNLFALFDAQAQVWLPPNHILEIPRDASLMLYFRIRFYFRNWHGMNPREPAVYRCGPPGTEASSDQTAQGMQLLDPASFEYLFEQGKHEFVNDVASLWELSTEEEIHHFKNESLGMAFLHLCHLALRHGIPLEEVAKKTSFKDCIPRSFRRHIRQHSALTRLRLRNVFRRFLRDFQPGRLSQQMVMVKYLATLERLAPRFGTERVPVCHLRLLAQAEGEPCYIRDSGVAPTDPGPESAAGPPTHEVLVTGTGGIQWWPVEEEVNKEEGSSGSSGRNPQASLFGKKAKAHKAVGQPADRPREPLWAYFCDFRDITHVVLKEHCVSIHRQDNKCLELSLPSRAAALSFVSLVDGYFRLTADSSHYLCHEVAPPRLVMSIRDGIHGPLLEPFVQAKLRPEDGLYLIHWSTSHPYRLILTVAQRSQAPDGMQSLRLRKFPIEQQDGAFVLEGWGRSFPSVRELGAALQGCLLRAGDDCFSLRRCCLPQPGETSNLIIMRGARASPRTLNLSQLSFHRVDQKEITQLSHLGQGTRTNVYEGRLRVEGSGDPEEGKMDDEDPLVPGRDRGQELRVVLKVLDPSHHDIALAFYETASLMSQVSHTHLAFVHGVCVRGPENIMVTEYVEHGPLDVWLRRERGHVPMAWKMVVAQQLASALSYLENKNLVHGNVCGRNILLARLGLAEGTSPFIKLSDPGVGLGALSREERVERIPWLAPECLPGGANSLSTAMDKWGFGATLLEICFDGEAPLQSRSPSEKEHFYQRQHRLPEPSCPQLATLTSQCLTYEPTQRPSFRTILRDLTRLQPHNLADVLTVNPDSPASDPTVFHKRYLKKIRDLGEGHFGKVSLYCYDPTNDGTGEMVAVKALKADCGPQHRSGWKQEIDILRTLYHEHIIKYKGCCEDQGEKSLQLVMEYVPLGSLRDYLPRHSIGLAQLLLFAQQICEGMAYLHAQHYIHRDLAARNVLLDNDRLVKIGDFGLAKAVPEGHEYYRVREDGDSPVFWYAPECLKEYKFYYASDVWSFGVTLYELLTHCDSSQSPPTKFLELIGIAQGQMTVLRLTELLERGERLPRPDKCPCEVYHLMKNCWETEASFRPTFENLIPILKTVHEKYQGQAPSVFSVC

T1 sequence (O00238 14-502): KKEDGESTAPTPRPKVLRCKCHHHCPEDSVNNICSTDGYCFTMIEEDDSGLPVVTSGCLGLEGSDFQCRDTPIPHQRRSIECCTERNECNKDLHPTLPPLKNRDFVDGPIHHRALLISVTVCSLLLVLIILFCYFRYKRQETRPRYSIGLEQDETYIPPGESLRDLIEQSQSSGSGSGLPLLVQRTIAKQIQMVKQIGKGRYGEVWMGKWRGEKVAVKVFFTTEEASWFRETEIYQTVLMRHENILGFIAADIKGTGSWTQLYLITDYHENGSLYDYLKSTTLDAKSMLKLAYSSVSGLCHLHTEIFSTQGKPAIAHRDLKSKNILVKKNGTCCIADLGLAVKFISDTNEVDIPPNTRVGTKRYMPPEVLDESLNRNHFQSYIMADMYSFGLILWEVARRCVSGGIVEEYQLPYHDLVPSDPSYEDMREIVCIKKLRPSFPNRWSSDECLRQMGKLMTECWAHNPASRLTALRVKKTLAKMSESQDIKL

Structure (SMILES)	% enzyme activity (ALK6/BMPR1B) [%]	remaining activity at 1 µM (ALK6/BMPR1B) [%]	% enzyme activity (Aurora A) [%]	% enzyme activity (CK1a1) [%]	% enzyme activity (CK1g2) [%]	% enzyme activity (IKKe/IKBKE) [%]	% enzyme activity (MSSK1/STK23) [%]	% enzyme activity (VRK2) [%]	remaining activity at 1 µM (CDK7/cyclin H) [%]	remaining activity at 1 µM (CK1d) [%]	remaining activity at 1 µM (HIPK1) [%]	remaining activity at 1 µM (HPK1/MAP4K1) [%]	remaining activity at 1 µM (IGF1R) [%]	remaining activity at 1 µM (KSR1) [%]	remaining activity at 1 µM (PKCeta) [%]	remaining activity at 1 µM (PKN2/PRK2) [%]	remaining activity at 1 µM (TYK2) [%]
COc1cc(-c2cncc(-c3ccc(N4CCN(C)CC4)cc3)c2C)cc(F)c1C(N)=O [Compound 26a, 2-Fluoro-6-methoxy-4-(4-methyl-5-(4-(4-methylpiperazin-1-yl)phenyl)pyridin-3-yl)benzamide]	17.03	18.2	97.24	91.31	75.72	87.51	98.71	87.47	97	98.1	106	58.7	99.2	94.5	94.9	94.5	92.6
COc1cc(-c2cncc(-c3ccc(N4C[C@@H](C)N(C)[C@@H](C)C4)cc3)c2C)cc(F)c1C(N)=O [Compound 26c, 2-Fluoro-6-methoxy-4-(4-methyl-5-(4-((3R,5S)-3,4,5-trimethylpiperazin-1-yl)phenyl)pyridin-3-yl)benzamide]	30.06	30.2	101.37	99.44	85.61	94.75	99.23	89.63	96.1	108	99.9	74.7	96.1	96.3	98.3	95.9	103
